Test results published in patent US7504420B2, “Compounds which inhibit beta-secretase activity and methods of use” (CoMentis, Inc., priority 2005, dated 2009).
pIC50, pKi: −log10 of the molar value.

Columns and labels:
[1] = system: Aβ production in Chinese hamster ovary cells that over-express human APP695 with the London and Swedish mutations; test: Cellular Aβ IC50 determination (Aβ40 sandwich ELISA); settings: Cricetulus griseus, CHO, 24 h, read-out: Cell, Aβ40, CHO cells over-expressing human APP695 (London and Swedish mutations), 24 h
memapsin 1 = biological target: T1, memapsin 1 (Homo sapiens, UniProt Q9Y5Z0); test: Inhibition of memapsin 1 catalytic activity (Ki); format: biochemical; settings: memapsin 1, pH 4.0, 37° C.; read-out: M1K
T1 sequence (Q9Y5Z0 63-518): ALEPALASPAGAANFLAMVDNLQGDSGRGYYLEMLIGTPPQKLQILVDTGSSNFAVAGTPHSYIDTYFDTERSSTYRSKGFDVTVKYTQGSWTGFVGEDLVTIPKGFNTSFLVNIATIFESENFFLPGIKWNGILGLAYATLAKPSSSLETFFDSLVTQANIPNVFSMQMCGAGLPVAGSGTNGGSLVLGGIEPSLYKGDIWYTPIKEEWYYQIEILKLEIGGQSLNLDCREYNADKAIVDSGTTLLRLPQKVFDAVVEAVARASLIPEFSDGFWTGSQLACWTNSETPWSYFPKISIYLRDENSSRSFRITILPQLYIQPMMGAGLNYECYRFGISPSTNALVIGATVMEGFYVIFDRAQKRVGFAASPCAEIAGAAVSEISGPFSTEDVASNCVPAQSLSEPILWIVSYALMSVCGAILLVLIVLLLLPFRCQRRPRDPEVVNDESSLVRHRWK
Description: A substrate peptide NH3-ELDLAVEFWHDR-CO2 (SEQ ID NO.:1) (used for inhibition assay of memapsin 2, memapsin 1, and cathepsin D) was dissolved at 2 mg/ml in DMSO and diluted 1:100 in 0.1 M sodium acetate, pH 4.0 just prior to assay. Inhibitor dissolved in DMSO was diluted into 0.1 M sodium acetate, pH 4.0 (1:100 dilution). A […] aliquot of the inhibitor solution in pH 4 buffer was combined with […] of 0.1 M sodium acetate containing 100-200 nM of memapsin 1, memapsin 2, or cathepsin D. Following a pre-incubation at 37° C., the proteolytic assay was initated by addition of […] of the substrate diluted into pH 4 buffer, and incubation continued at 37° C. Aliquots were removed at time intervals, and combined with an equal volume of MALDI-TOF matrix (α-hydroxycinnamic acid in acetone, 20 mg/ml) and immediately spotted in duplicate onto a stainless-steel MALDI sample plate. MALDI-TOF mass spectrometry was performed on a PE Biosystems Voyager DE instrument at the Molecular Biology Resource Center on campus. The instrument was operated at 25,000 accelerating volts in positive mode with a 150 ns delay. Ions with a mass-to-charge ratio (m/z) were detected in the range of 650-2000 atomic mass units. Data were analyzed by the Voyager Data Explorer module to obtain ion intensity data for mass species of substrates and corresponding products in a given mixture. Relative product formation was calculated as the ratio of signal intensity of the product to the sum of signal intensities of both product and the corresponding substrate. Relative product formed per unit time was obtained from non-linear regression analysis of the data representing the initial 15% formation of product using the model: 1−e^−kT, where k was the relative hydrolytic rate constant and T was time in seconds. Alternatively, relative hydrolytic rates were determined using a fluorogenic cleavage assay (Ermolieff, J. et al., Biochemistry, 39: 12450-12456 (2000)). Initial rates from either method were expressed relative to uninhibited controls and the inhibition constant Ki was determined by a non-linear fit to a tight-binding model of competitive inhibition (Bieth, J., Bayer-Symposium V: Proteinase Inhibitors, pp 463-469, Spinger-Varlag, Berlin (1994)). Results are shown in Table 1 above (M2K, CDK, and M1K columns represent, respectively, the K1 values obtained for memapsin 2, cathepsin D and memapsin 1).

memapsin 2 = memapsin 2 (Homo sapiens, UniProt P56817); test: Inhibition of memapsin 2 catalytic activity (Ki); format: biochemical; settings: memapsin 2, pH 4, 37° C.; read-out: M2K
Outline: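 Run at 37 °C and pH 4: compound and enzyme pre-incubated 20 min before FS-2 fluorogenic substrate started hydrolysis,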

cathepsin D = cathepsin D (Homo sapiens, UniProt P07339); test: Inhibition of cathepsin D catalytic activity (Ki); format: biochemical; settings: pH 4.0, 37° C., read-out: CDK
cathepsin D, sequence (P07339 65-412, species assumed): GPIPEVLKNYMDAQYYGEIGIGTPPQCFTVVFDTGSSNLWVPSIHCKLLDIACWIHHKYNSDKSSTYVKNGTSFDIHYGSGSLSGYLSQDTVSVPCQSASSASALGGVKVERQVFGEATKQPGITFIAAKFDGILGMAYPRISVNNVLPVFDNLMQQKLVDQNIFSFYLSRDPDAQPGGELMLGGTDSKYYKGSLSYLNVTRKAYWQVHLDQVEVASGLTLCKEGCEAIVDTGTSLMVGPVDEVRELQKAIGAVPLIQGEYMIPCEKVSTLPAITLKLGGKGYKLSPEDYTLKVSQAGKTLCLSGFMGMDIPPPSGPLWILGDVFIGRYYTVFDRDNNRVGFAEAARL

memapsin 2, sequence (P56817 46-501): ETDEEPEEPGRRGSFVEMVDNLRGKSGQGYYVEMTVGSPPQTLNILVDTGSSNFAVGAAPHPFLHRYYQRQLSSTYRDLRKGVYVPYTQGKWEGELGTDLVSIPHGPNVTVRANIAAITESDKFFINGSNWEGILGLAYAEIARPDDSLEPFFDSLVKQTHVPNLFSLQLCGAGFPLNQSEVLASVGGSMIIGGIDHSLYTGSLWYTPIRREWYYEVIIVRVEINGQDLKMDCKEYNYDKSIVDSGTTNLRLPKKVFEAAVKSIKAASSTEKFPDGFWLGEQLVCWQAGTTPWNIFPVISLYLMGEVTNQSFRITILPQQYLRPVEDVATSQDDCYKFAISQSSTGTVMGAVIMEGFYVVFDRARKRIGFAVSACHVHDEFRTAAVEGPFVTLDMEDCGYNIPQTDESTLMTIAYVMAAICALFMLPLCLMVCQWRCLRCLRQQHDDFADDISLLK

SMILES	pIC50 [1]	pKi (memapsin 1)	pKi (memapsin 2)	pKi (cathepsin D)
CC(NC(=O)c1cc(C(=O)NC(Cc2ccccc2)C(O)CNCc2ccccc2O)cc(N(C)S(C)(=O)=O)c1)c1ccccc1 (stereo not drawn) [N1-(3-hydroxy-4-(2-hydroxybenzylamino)-1-phenylbutan-2-yl)-5-(N-methylmethylsulfonamido)-N3-(1-phenylethyl)isophthalamide]	> 6.00	> 6.52	> 6.52	> 6.52
COc1ccccc1CNCC(O)C(Cc1ccccc1)NC(=O)c1cc(C(=O)NC(C)c2ccccc2)cc(N(C)S(C)(=O)=O)c1 (stereo not drawn) [N1-(3-hydroxy-4-(2-methoxybenzylamino)-1-phenylbutan-2-yl)-5-(N-methylmethylsulfonamido)-N3-(1-phenylethyl)isophthalamide]	> 6.00	6.30 to 6.52	> 6.52	> 6.52
CC(NC(=O)c1cc(C(=O)NC(Cc2ccccc2)C(O)CNN(C)c2ccccc2)cc(N(C)S(C)(=O)=O)c1)c1ccccc1 (stereo not drawn) [N1-(3-hydroxy-4-(2-methyl-2-phenylhydrazinyl)-1-phenylbutan-2-yl)-5-(N-methylmethylsulfonamido)-N3-(1-phenylethyl)isophthalamide]	< 5.30	< 6.30	6.30 to 6.52	< 6.30
COc1cccc(CNCC(O)C(Cc2ccccc2)NC(=O)c2cc(C(=O)NC(C)c3cccnc3)cc(N(C)S(C)(=O)=O)c2)c1 (stereo not drawn) [N1-(3-hydroxy-4-(3-methoxybenzylamino)-1-phenylbutan-2-yl)-5-(N-methylmethylsulfonamido)-N3-(1-(pyridin-3-yl)ethyl)isophthalamide]	> 6.00	< 6.30	> 6.52	< 6.30
CCC(NC(=O)c1cc(C(=O)NC(Cc2ccccc2)C(O)CNCc2cccc(OC)c2)cc(N(C)S(C)(=O)=O)c1)c1ccccc1 (stereo not drawn) [N1-(3-hydroxy-4-(3-methoxybenzylamino)-1-phenylbutan-2-yl)-5-(N-methylmethylsulfonamido)-N3-(1-phenylpropyl)isophthalamide]	> 6.00	> 6.52	> 6.52	> 6.52
COc1cccc(CNCC(O)C(Cc2ccccc2)NC(=O)c2cc(C(=O)NC(C)c3ccccc3)cc([N+](=O)[O-])c2)c1 (stereo not drawn) [N1-(3-hydroxy-4-(3-methoxybenzylamino)-1-phenylbutan-2-yl)-5-nitro-N3-(1-phenylethyl)isophthalamide]	> 6.00	> 6.52	6.30 to 6.52	> 6.52
COc1cccc(CNCC(O)C(Cc2ccccc2)NC(=O)c2cccc(C(=O)NC(C)c3cccnc3)c2)c1 (stereo not drawn) [N1-(3-hydroxy-4-(3-methoxybenzylamino)-1-phenylbutan-2-yl)-N3-(1-(pyridin-3-yl)ethyl)isophthalamide]	< 5.30	< 6.30	< 6.30	< 6.30
COc1cccc(CNCC(O)C(Cc2ccccc2)NC(=O)c2cc(C(=O)NCc3cccc(OC)c3)cc(N(C)S(C)(=O)=O)c2)c1 (stereo not drawn) [N1-(3-hydroxy-4-(3-methoxybenzylamino)-1-phenylbutan-2-yl)-N3-(3-methoxybenzyl)-5-(N-methylmethylsulfonamido)isophthalamide]	5.30 to 6.00	< 6.30	> 6.52	> 6.52

Continued, values first:

pIC50 [1]	pKi (memapsin 1)	pKi (memapsin 2)	pKi (cathepsin D)	SMILES
< 5.30	< 6.30	< 6.30	> 6.52	COc1cccc(CNCC(O)C(Cc2ccccc2)NC(=O)c2cccc(C(=O)N(C)Cc3cc(C)no3)c2)c1 (stereo not drawn) [N1-(3-hydroxy-4-(3-methoxybenzylamino)-1-phenylbutan-2-yl)-N3-methyl-N3-((3-methylisoxazol-5-yl)methyl)isophthalamide]
> 6.00	< 6.30	> 6.52	> 6.52	COc1cccc(CNCC(O)C(Cc2ccccc2)NC(=O)c2cccc(C(=O)N(C)Cc3nc(C)cs3)c2)c1 (stereo not drawn) [N1-(3-hydroxy-4-(3-methoxybenzylamino)-1-phenylbutan-2-yl)-N3-methyl-N3-((4-methylthiazol-2-yl)methyl)isophthalamide]
> 6.00	6.30 to 6.52	> 6.52	> 6.52	Cc1cccc(CNCC(O)C(Cc2ccccc2)NC(=O)c2cc(C(=O)NC(C)c3ccccc3)cc(N(C)S(C)(=O)=O)c2)c1 (stereo not drawn) [N1-(3-hydroxy-4-(3-methylbenzylamino)-1-phenylbutan-2-yl)-5-(N-methylmethylsulfonamido)-N3-(1-phenylethyl)isophthalamide]
> 6.00	< 6.30	< 6.30	> 6.52	Cc1cccc(CNCC(O)C(Cc2ccccc2)NC(=O)c2cccc(C(=O)N(C)Cc3nc(C)cs3)c2)c1 (stereo not drawn) [N1-(3-hydroxy-4-(3-methylbenzylamino)-1-phenylbutan-2-yl)-N3-methyl-N3-((4-methylthiazol-2-yl)methyl)isophthalamide]
> 6.00	< 6.30	> 6.52	6.30 to 6.52	Cc1csc(CNCC(O)C(Cc2ccccc2)NC(=O)c2cc(C(=O)NC(C)c3ccccc3)cc(N(C)S(C)(=O)=O)c2)n1 (stereo not drawn) [N1-(3-hydroxy-4-((4-methylthiazol-2-yl)methylamino)-1-phenylbutan-2-yl)-5-(N-methylmethylsulfonamido)-N3-(1-phenylethyl)isophthalamide]
> 6.00	6.30 to 6.52	> 6.52	> 6.52	Cc1csc(CN(C)C(=O)c2cccc(C(=O)NC(Cc3ccccc3)C(O)CNCc3cncc(C(C)C)c3)c2)n1 (stereo not drawn) [N1-(3-hydroxy-4-((5-isopropylpyridin-3-yl)methylamino)-1-phenylbutan-2-yl)-N3-methyl-N3-((4-methylthiazol-2-yl)methyl)isophthalamide]
> 6.00	6.30 to 6.52	> 6.52	> 6.52	Cc1cncc(CNCC(O)C(Cc2ccccc2)NC(=O)c2cc(C(=O)NC(C)c3ccccc3)cc(N(C)S(C)(=O)=O)c2)c1 (stereo not drawn) [N1-(3-hydroxy-4-((5-methylpyridin-3-yl)methylamino)-1-phenylbutan-2-yl)-5-(N-methylmethylsulfonamido)-N3-(1-phenylethyl)isophthalamide]
> 6.00	6.30 to 6.52	6.30 to 6.52	< 6.30	Cc1cccc(CNCC(O)C(Cc2ccccc2)NC(=O)c2cc(C(=O)NC(C)c3ccccc3)cc(N(C)S(C)(=O)=O)c2)n1 (stereo not drawn) [N1-(3-hydroxy-4-((6-methylpyridin-2-yl)methylamino)-1-phenylbutan-2-yl)-5-(N-methylmethylsulfonamido)-N3-(1-phenylethyl)isophthalamide]
> 6.00	> 6.52	> 6.52	> 6.52	CC(NCC(O)C(Cc1ccccc1)NC(=O)c1cc(C(=O)NC(C)c2ccccc2)cc(N(C)S(C)(=O)=O)c1)c1ccc(F)cc1 (stereo not drawn) [N1-(4-(1-(4-fluorophenyl)ethylamino)-3-hydroxy-1-phenylbutan-2-yl)-5-(N-methylmethylsulfonamido)-N3-(1-phenylethyl)isophthalamide]
> 6.00	< 6.30	> 6.52	> 6.52	CC(NC(=O)c1cc(C(=O)NC(Cc2ccccc2)C(O)CNCc2cc(F)cc(F)c2)cc(N(C)S(C)(=O)=O)c1)c1ccccc1 (stereo not drawn) [N1-(4-(3,5-difluorobenzylamino)-3-hydroxy-1-phenylbutan-2-yl)-5-(N-methylmethylsulfonamido)-N3-(1-phenylethyl)isophthalamide]
